Laboratory results taken from patent US20240201203A1, “COMPOSITIONS AND METHODS FOR TREATING INDIVIDUALS WHO HAVE ONCOGENE-NEGATIVE CANCER” (priority 2021, published 2024).

Assays:
[1] = tested on: Nf1, Rasa1, and Pten-mutant lung adenocarcinoma cell-lines; assay: Clonogenic growth assay and Loewe synergy, mouse oncogene-negative cell lines; assay type: cell-based; details: three mouse cell lines, various doses, four days, crystal violet
Procedure: (§1) Cell lines were generated from tumors initiated in Trp53^flox/flox; TC BL6 mice four months after transduction with Lenti-sgNf1-sgRasa1-sgPten/Cre. After dissociation of tumors (described below), cells were cultured in the regular media.
For clonogenic assays, cells were seeded in triplicate into 24-well plates (4000 cells per well) and allowed to adhere overnight in regular growth media. Cells were then cultured in the absence or presence of the drug as indicated on each figure panel in complete media for 4 days. Growth media with or without drugs was replaced every 2 days. The remaining cells were stained with 0.5% crystal violet in 20% methanol and photographed using a digital scanner. Relative growth was quantified by densitometry after extracting crystal violet from the stained cells using 100% methanol.
Drug synergism was analyzed using SynergyFinder (https://synergyfinder.fimm.fi) web application. The degree of combination synergy, or antagonism, is quantified by comparing the observed drug combination response against the expected response, calculated using Loewe's model that assumes no interaction between drugs.

RAS and PI3K signaling = assay: Immunoblot of oncogene-negative cell lines treated with drugs; assay type: cell-based, mouse; details: 3 oncogene-negative cell lines, 10 uM, 24 hours
Procedure: as §1
For apoptosis and proliferation assays, 3×10^5 cells were seeded into 6-well plates and allowed to adhere overnight in regular growth media and cultured in the presence or absence 10 uM of Capivasertib, RMC-4550, or a combination of both drugs. After 24 hours, the protein was extracted using RIPA lysis buffer (Thermo Fisher Scientific, 89900) and proteinase/phosphatase inhibitor cocktail (Thermo Fisher Scientific, 78442). Protein concentration was measured using BCA protein assay kit (Thermo Fisher Scientific, 23250). Proteins (30 ug from each sample) were separated by SDS-PAGE and immunoblotted and transferred to polyvinyl difluoride (PVDF) membranes (BioRad, 162-0177) according to standard protocols. Membranes were immunoblotted with antibodies against phosphor-ERK (Cell Signaling Technology, 4370), ERK (Cell Signaling Technology, 9102), phosphor-AKT (Thermo Fisher Scientific, 44-621G), AKT (Cell Signaling Technology, 4691), phospho-S6 (Cell Signaling Technology, 4858), S6 (Cell Signaling Technology, 2217), and HSP90 (BD Bioscience, 610418). […]

[2] = tested on: Nf1, Rasa1, and Pten mutant oncogene-negative lung tumors; assay: Drug efficacy study in TC mice with oncogene-negative lung tumors (Tuba-seq, imaging, histology); assay type: in vivo, mouse; details: tumors from sgNf1/sgRasa1/sgPten vectors, capivasertib 100 mg/kg, RMC-4550 30 mg/kg, gavage, two weeks, 3.5 months after tumor initiation, vs vehicle
Procedure: For drug efficacy studies, TC mice (8-12 weeks old) were divided into 4 groups randomly. They received the vehicle, capivasertib (100 mg/kg, Med Chem Express), RMC-4550 (30 mg/kg, Med Chem Express), or a combination of both dissolved in 10% DMSO, 40% PEG, 5% Tween 80, and 45% PBS through a gavage needle. Mice were treated daily with drugs for eight days, and the treatment was stopped for two days for recovery, and it continued for two more days before the tissue harvest.
Tumors were initiated by intratracheal delivery of pooled or individual Lenti-sgRNA/Cre vectors. Barcoded Lenti-sgRNA/Cre vectors within each viral pool are indicated in each figure. […]
For DNA extraction from single dissected tumors to generate libraries for Tuba-seq, targeted sequencing of selected oncogenes, and whole-exome sequencing, we used Qiagen AllPrep DNA/RNA Micro kit. […] Three cell lines (100,000 to 500,000 cells each) were added to each mouse lung sample before lysis to enable the calculation of the absolute number of neoplastic cells in each tumor from the number of sgID-BC reads. […] The concentration and quality of the purified libraries were determined using the Agilent High Sensitivity DNA kit (Agilent Technologies, 5067-4626) on the Agilent 2100 Bioanalyzer (Agilent Technologies, G2939BA). […]
The FASTQ files were parsed to identify the sgID and barcode (BC) for each read. […]

SMILES	overall growth of oncogene-negative cell lines [1]	RAS signaling (immunoblot) (RAS and PI3K signaling)	total tumor burden (Tuba-seq analysis) [2]	PI3K signaling (immunoblot) (RAS and PI3K signaling)
Cc1nc(N2CCC3(CC2)CO[C@@H](C)[C@H]3N)c(CO)nc1-c1cccc(Cl)c1Cl [RMC-4550]	decreased the overall growth of three oncogene-negative RAS/PI3K cell lines in a dose-dependent manner	reduced	reduced the total tumor burden significantly	–
NC1(C(=O)N[C@@H](CCO)c2ccc(Cl)cc2)CCN(c2ncnc3[nH]ccc23)CC1 [capivasertib]	decreased the overall growth of three oncogene-negative RAS/PI3K cell lines in a dose-dependent manner	–	ineffective	reduced
